Test results from ChEMBL document CHEMBL1128161, “Novel prostanoid thromboxane A2 antagonists” (Bioorg Med Chem Lett, 1995).

These molecules were tested against T1, Thromboxane A2 receptor (Homo sapiens) (UniProt P21731) (assay: Thromboxane A2 receptor binding affinity was evaluated as competition factor (CF = (IC50-test) / (IC50-standard)).
T1 sequence (whole entry): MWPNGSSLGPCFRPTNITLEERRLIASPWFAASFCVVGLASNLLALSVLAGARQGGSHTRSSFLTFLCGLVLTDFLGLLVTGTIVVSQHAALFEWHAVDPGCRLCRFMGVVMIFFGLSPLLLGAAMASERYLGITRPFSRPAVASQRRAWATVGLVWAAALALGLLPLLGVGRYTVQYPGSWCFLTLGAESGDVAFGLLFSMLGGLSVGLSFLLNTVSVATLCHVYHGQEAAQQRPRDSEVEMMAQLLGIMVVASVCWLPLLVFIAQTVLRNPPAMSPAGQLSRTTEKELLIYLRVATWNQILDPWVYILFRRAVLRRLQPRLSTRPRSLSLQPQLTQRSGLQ
In the case of `O=C(O)CC/C=C\C[C@H]1[C@H](F)CC[C@@H]1NS(=O)(=O)c1ccc(Cl)c(Cl)c1`, the CF is reported as 1.4.

What follows are molecules tested against T1, Thromboxane A2 receptor (Homo sapiens) (assay: Thromboxane A2 receptor binding affinity was evaluated, which is expressed as competition factor (CF = (IC50-test) / (IC50-standard)).
`O=C(O)COCCCCC1=CCC[C@@H]1NS(=O)(=O)c1ccccc1` was tested, and the CF was 26.
In the case of `O=C(O)CCC/C=C\C[C@H]1[C@H](F)CC[C@@H]1NS(=O)(=O)c1ccc(Cl)cc1`, the CF is reported as 0.3.
With `O=C(O)COCCCC[C@H]1[C@H](F)CC[C@@H]1NS(=O)(=O)c1ccc(F)cc1F` the CF was 30.
`O=C(O)COCCCC[C@H]1[C@H](F)CC[C@@H]1NS(=O)(=O)c1ccccc1[N+](=O)[O-]` was tested, and the CF was 330.
For `O=C(O)CC/C=C\CC1=CCC[C@@H]1NS(=O)(=O)c1ccc(Cl)cc1`, the CF was 2.8.
Molecule `O=C(O)CC/C=C\CC1=CCC[C@@H]1NS(=O)(=O)c1ccc(F)cc1F` has a CF of 14.
`O=C(O)CCC/C=C\CC1=CCC[C@@H]1NS(=O)(=O)c1ccc(F)cc1` (stereo in doubt) gave a CF of 1.5.
Molecule `O=C(O)CC/C=C\CC1=CCC[C@@H]1CNS(=O)(=O)c1ccc(F)cc1` has a CF of 21.
For `O=C(O)CC/C=C\C[C@@H]1[C@@H](CNS(=O)(=O)c2ccc(F)cc2)CC[C@@H]1F`, the CF was 11.
Molecule `O=C(O)CCCC=CC[C@H]1[C@H](F)CC[C@@H]1NS(=O)(=O)c1ccc(F)cc1` has a CF of 1.5.
`O=C(O)CCC/C=C\C[C@H]1[C@H](F)CC[C@@H]1NS(=O)(=O)c1ccc(Cl)c(Cl)c1` showed a CF of 0.5.
Molecule `O=C(O)CC/C=C\C[C@H]1[C@H](F)CC[C@@H]1NS(=O)(=O)c1ccccc1[N+](=O)[O-]` has a CF of 370.
`O=C(O)CCCCC[C@@H]1[C@@H](CNS(=O)(=O)c2ccc(F)cc2)CC[C@H]1F` gave a CF of 380.
In the case of `O=C(O)CCC/C=C\C[C@@H]1[C@@H](CNS(=O)(=O)c2ccc(F)cc2)CC[C@H]1F`, the CF is reported as 50.
`O=C(O)CCC/C=C\CC1=CCC[C@@H]1NS(=O)(=O)c1ccc(Cl)c(Cl)c1` showed a CF of 1.1.
For `O=C(O)CC/C=C\C[C@@H]1[C@@H](CNS(=O)(=O)c2ccc(F)cc2)CC[C@H]1F` (stereo in doubt; form 2), the CF was 300.
`O=C(O)COCCCCC1=CCC[C@@H]1NS(=O)(=O)c1ccc(Cl)c(Cl)c1` gave a CF of 7.6.
Molecule `O=C(O)CC/C=C\CC1=CCC[C@@H]1NS(=O)(=O)c1ccccc1` has a CF of 12.
Molecule `O=C(O)CCCCCCC1=CCC[C@@H]1NS(=O)(=O)c1ccc(F)cc1` has a CF of 2.7.
`O=C(O)COCCCC[C@H]1[C@H](F)CC[C@@H]1NS(=O)(=O)c1ccc(Cl)cc1` gave a CF of 0.8.
`O=C(O)CC/C=C\C[C@H]1[C@H](F)CC[C@@H]1NS(=O)(=O)c1ccc(F)cc1` gave a CF of 4.3.
`O=C(O)CCCCCC[C@H]1[C@H](F)CC[C@@H]1NS(=O)(=O)c1ccc(F)cc1` gave a CF of 7.5.
In the case of `O=C(O)CCC/C=C\C[C@H]1[C@H](F)CC[C@@H]1NS(=O)(=O)c1ccccc1[N+](=O)[O-]`, the CF is reported as 10.
`O=C(O)CCC/C=C\CC1=CCC[C@@H]1NS(=O)(=O)c1ccc(F)cc1` (stereo in doubt; 3d) was tested, and the CF was 1.5.
`O=C(O)CCCCCC[C@@H]1[C@@H](CNS(=O)(=O)c2ccc(F)cc2)CC[C@H]1F` gave a CF of 260.
Molecule `Cc1ccc(S(=O)(=O)N[C@H]2CCC=C2CCCCOCC(=O)O)cc1` has a CF of 11.
With `O=C(O)COCCCCC1=CCC[C@@H]1NS(=O)(=O)c1ccccc1[N+](=O)[O-]` the CF was 130.
`Cc1ccc(S(=O)(=O)N[C@H]2CC[C@@H](F)[C@@H]2C/C=C\CCCC(=O)O)cc1` was tested, and the CF was 1.5.
Work on `O=C(O)CCC/C=C\C[C@H]1[C@H](F)CC[C@@H]1NS(=O)(=O)c1ccc(F)cc1F` yielded a CF of 1.1.
For `O=C(O)COCCCCC1=CCC[C@@H]1NS(=O)(=O)c1ccc(F)cc1F`, the CF was 22.
For `O=C(O)CC/C=C\CC1=CCC[C@@H]1NS(=O)(=O)c1ccccc1[N+](=O)[O-]`, the CF was 40.
For `O=C(O)CC/C=C\C[C@H]1[C@H](F)CC[C@@H]1NS(=O)(=O)c1ccc(Cl)cc1`, the CF was 1.3.
With `O=C(O)COCCCCC1=CCC[C@@H]1NS(=O)(=O)c1ccc(F)cc1` the CF was 13.
`O=C(O)CCC/C=C\CC1=CCC[C@@H]1NS(=O)(=O)c1ccccc1[N+](=O)[O-]` gave a CF of 6.6.
Work on `O=C(O)CCC/C=C\CC1=CCC[C@@H]1NS(=O)(=O)c1ccccc1` yielded a CF of 3.5.
`Cc1ccc(S(=O)(=O)N[C@H]2CC[C@@H](F)[C@@H]2C/C=C\CCC(=O)O)cc1` gave a CF of 5.1.
Work on `O=C(O)CCC/C=C\C[C@H]1[C@H](F)CC[C@@H]1NS(=O)(=O)c1ccc(F)cc1` yielded a CF of 1.5.
Molecule `O=C(O)CC/C=C/C[C@H]1[C@H](F)CC[C@@H]1NS(=O)(=O)c1ccc(F)cc1F` has a CF of 6.6.
With `O=C(O)CCC/C=C\C[C@H]1[C@H](F)CC[C@@H]1NS(=O)(=O)c1cccc2cccnc12` the CF was 340.
Work on `O=C(O)CCC/C=C\C[C@H]1[C@H](F)CC[C@@H]1NS(=O)(=O)c1ccc2ccccc2c1` yielded a CF of 0.3.
With `O=C(O)COCCCCC1=CCC[C@@H]1NS(=O)(=O)c1ccc(Cl)cc1` the CF was 2.6.
With `O=C(O)CC/C=C\C[C@@H]1[C@@H](CNS(=O)(=O)c2ccc(Cl)cc2)CC[C@H]1F` the CF was 40.
`O=C(O)CCC/C=C\CC1=CCC[C@@H]1NS(=O)(=O)c1ccc(Cl)cc1` was tested, and the CF was 0.3.
`O=C(O)CCC/C=C\CC1=CCC[C@@H]1NS(=O)(=O)c1ccc2ccccc2c1` gave a CF of 0.3.
`Cc1ccc(S(=O)(=O)N[C@H]2CCC=C2C/C=C\CCC(=O)O)cc1` was tested, and the CF was 7.4.
In the case of `Cc1ccc(S(=O)(=O)NC[C@H]2CC[C@@H](F)[C@@H]2C/C=C\CCC(=O)O)cc1`, the CF is reported as 154.
Molecule `O=C(O)CCCC=CCC1=CCC[C@@H]1NS(=O)(=O)c1cccc2cccnc12` has a CF of 560.
Work on `O=C(O)CCC/C=C\CC1=CCC[C@@H]1CNS(=O)(=O)c1ccc(F)cc1` yielded a CF of 17.
Molecule `O=C(O)CC/C=C\C[C@@H]1[C@@H](CNS(=O)(=O)c2ccc(F)cc2)CC[C@H]1F` (stereo in doubt; form 1) has a CF of 300.
`O=C(O)CC/C=C\CC1=CCC[C@@H]1NS(=O)(=O)c1ccc(F)cc1` was tested, and the CF was 5.5.
With `O=C(O)CC/C=C\C[C@H]1[C@H](F)CC[C@@H]1NS(=O)(=O)c1ccccc1` the CF was 10.
Work on `Cc1ccc(S(=O)(=O)N[C@H]2CCC=C2C/C=C\CCCC(=O)O)cc1` yielded a CF of 1.5.
In the case of `O=C(O)CCC/C=C\CC1=CCC[C@@H]1NS(=O)(=O)c1ccc(F)cc1F`, the CF is reported as 1.5.
For `O=C(O)CC/C=C\CC1=CCC[C@@H]1NS(=O)(=O)c1ccc(Cl)c(Cl)c1`, the CF was 13.
Molecule `O=C(O)CCC/C=C\C[C@H]1[C@H](F)CC[C@@H]1NS(=O)(=O)c1ccccc1` has a CF of 4.
For `O=C(O)COCCCC[C@H]1[C@H](F)CC[C@@H]1NS(=O)(=O)c1ccc(Cl)c(Cl)c1`, the CF was 2.3.

The molecules below were run against T1, Thromboxane A2 receptor (Homo sapiens) (assay: Thromboxane A2 receptor binding affinity was evaluated, which is expressed as competition factor (CF = (IC50-test) / (IC50-standard); not parallel).
With `Cc1ccc(S(=O)(=O)N[C@H]2CC[C@@H](F)[C@@H]2CCCCOCC(=O)O)cc1` the CF was 3.5.
`O=C(O)CC/C=C\C[C@@H]1[C@@H](CNS(=O)(=O)c2ccc(F)cc2)CC[C@H]1F` gave a CF of 11.
For `O=C(O)COCCCC[C@H]1[C@H](F)CC[C@@H]1NS(=O)(=O)c1ccccc1`, the CF was 9.1.
`O=C(O)COCCCCC1=CCC[C@@H]1CNS(=O)(=O)c1ccc(F)cc1` was tested, and the CF was 0.5.
`O=C(O)COCCCC[C@@H]1[C@@H](CNS(=O)(=O)c2ccc(F)cc2)CC[C@H]1F` was tested, and the CF was 6.7.
`O=C(O)CC/C=C\C[C@@H]1[C@@H](CNS(=O)(=O)c2ccc(Cl)cc2)CC[C@@H]1F` gave a CF of 1.8.
For `O=C(O)COCCCC[C@H]1[C@H](F)CC[C@@H]1NS(=O)(=O)c1ccc(F)cc1`, the CF was 2.7.
In the case of `Cc1ccc(S(=O)(=O)NC[C@H]2CC[C@H](F)[C@@H]2C/C=C\CCC(=O)O)cc1`, the CF is reported as 6.

Species on record: Homo sapiens
Test: Compound was evaluated for the inhibition of platelet aggregation, assessed turbidimetrically in citreated human platelet rich plasma (PRP); NE means not effective; call rule not given here
Format: functional, organism-based
`O=C(O)CCC/C=C\CC1=CCC[C@@H]1NS(=O)(=O)c1ccc(Cl)c(Cl)c1` was tested, and the IC50 was “Not Active”.
In the case of `O=C(O)COCCCC[C@H]1[C@H](F)CC[C@@H]1NS(=O)(=O)c1ccc(Cl)cc1`, the IC50 is reported as “Not Active”.
For `O=C(O)CC/C=C\C[C@@H]1[C@@H](CNS(=O)(=O)c2ccc(Cl)cc2)CC[C@@H]1F`, the IC50 was “Not Active”.
In the case of `Cc1ccc(S(=O)(=O)NC[C@H]2CC[C@H](F)[C@@H]2C/C=C\CCC(=O)O)cc1`, the IC50 is reported as “Not Active”.
With `O=C(O)COCCCCC1=CCC[C@@H]1NS(=O)(=O)c1ccc(Cl)cc1` the IC50 was “Not Active”.
In the case of `O=C(O)CCC/C=C\CC1=CCC[C@@H]1NS(=O)(=O)c1ccc(Cl)cc1`, the IC50 is reported as “Not Active”.
For `O=C(O)CCC/C=C\CC1=CCC[C@@H]1NS(=O)(=O)c1ccc(F)cc1F`, the IC50 was “Not Active”.
In the case of `O=C(O)COCCCC[C@H]1[C@H](F)CC[C@@H]1NS(=O)(=O)c1ccc(Cl)c(Cl)c1`, the IC50 is reported as “Not Active”.
